Like-named read-outs stand apart in the source and are kept apart here.
Target: T1, WIZ (Homo sapiens, UniProt O95785+Q96SW2)
T1 construct: expressed in transfected cells
Assay: Quantification of WIZ protein levels in HiBit tag fusion protein assay (293T cells)
Format: cell-based
Set-up: Dmax: dose or concentration left out as unconfirmed
Settings: for remaining activity at 25 µM / Dmax at 25 µM / Dmax: HEK-293T; for remaining activity at 25 µM: read-out: WIZ Amax; for Dmax at 25 µM: 100 − Amax; for Dmax at 25 µM / Dmax: read-out: % degradation of WIZ (100 − Amax); for DC50: WIZ HiBit assay in 293T cells, about 18 hours, 10-point 5-fold dilution, top 25 μM, read-out: WIZ AC50
Procedure: The HiBit system from Promega was used to develop high-throughput and quantitative assays to measure changes in WIZ protein levels in response to compounds. The HiBit tag was derived from a split Nanoluciferase and has the following protein sequence: […] (SEQ ID NO: 1). The complementary fragment of Nanoluciferase (known as LgBit, from Promega), was added to the HiBit tag to form an active Nanoluciferase enzyme whose activity can be precisely measured. In this way, the levels of a fusion protein with the HiBit tag can be quantified in cell lysates.
Lentiviral vectors, based on the Invitrogen™ pLenti6.2/V5 DEST backbone were constructed that places the HiBit tag upstream of WIZ and expressed the fusion protein from an HSVTK promotor.
To ensure moderate and consistent expression of the HiBit-WIZ fusion protein across all cells in the population, stable cell lines were constructed from cells harboring a single copy of the construct. Lentivirus packaged with the constructs were made using the ViraPowerTMkit from Invitrogen™. 293T cells from ATCC (Catalog number: CRL-3216), were infected with the virus at low multiplicity of infection and selected by 5 μg/mL blasticidin in culture media for 2 weeks.
The levels of HiBit-WIZ tagged fusion proteins in compound-treated cell lines were measured as follows:
On day 1, cells were diluted to 1.0×10^6 cells/ml in normal growth medium. 20 μL of cell suspension were plated in each well of a solid white 384-well plate. Plates were incubated overnight in a 37° C. and 5% CO2 humidified tissue culture incubator.
On day 2, serial dilutions of compounds were made in 384-well plates. Compound plates were set up with DMSO in columns 1, 2, 23, 24, and 10-point compound dilution series in column 3-12 and column 13-22. 10 mM stock solution of compound were placed into column 3 or 13 and a 1:5 serial dilution was carried out until there was a 10-point dilution series per compound. 50 nL of diluted compounds were transferred into the plated cells by Echo® (Labcyte) acoustic transfer. The highest concentration of compound was 25 μM. Plates were incubated overnight (about 18 hours) in a 37° C. and 5% CO2 humidified tissue culture incubator.
On day 3, plates were removed from the incubator and allowed to equilibrate at room temperature for 60 minutes. HiBit substrate (Nano-Glo® HiBit Lytic Detection System, Promega Catalogue number: N3050) was added as described by the manufacturers protocols. Plates were incubated at room temperature for 30 minutes and luminescence was read using an EnVision® reader (PerkinElmer®). Data was analyzed and visualized using the Spotfire® software package.
WIZ Amax reflects the DMSO-normalized, curve-fitted percentage of WIZ-HiBit remaining at 25 uM. It was calculated by normalizing DMSO controls to 100%, parametric curve fitting of the dose response data (10-point, 5-fold), followed by calculation of response at 25 uM using the fitted equation.

[1] = DMSO-normalized, curve-fitted percentage of WIZ-HiBit remaining at 25 uM

T1 sequence (O95785 whole entry): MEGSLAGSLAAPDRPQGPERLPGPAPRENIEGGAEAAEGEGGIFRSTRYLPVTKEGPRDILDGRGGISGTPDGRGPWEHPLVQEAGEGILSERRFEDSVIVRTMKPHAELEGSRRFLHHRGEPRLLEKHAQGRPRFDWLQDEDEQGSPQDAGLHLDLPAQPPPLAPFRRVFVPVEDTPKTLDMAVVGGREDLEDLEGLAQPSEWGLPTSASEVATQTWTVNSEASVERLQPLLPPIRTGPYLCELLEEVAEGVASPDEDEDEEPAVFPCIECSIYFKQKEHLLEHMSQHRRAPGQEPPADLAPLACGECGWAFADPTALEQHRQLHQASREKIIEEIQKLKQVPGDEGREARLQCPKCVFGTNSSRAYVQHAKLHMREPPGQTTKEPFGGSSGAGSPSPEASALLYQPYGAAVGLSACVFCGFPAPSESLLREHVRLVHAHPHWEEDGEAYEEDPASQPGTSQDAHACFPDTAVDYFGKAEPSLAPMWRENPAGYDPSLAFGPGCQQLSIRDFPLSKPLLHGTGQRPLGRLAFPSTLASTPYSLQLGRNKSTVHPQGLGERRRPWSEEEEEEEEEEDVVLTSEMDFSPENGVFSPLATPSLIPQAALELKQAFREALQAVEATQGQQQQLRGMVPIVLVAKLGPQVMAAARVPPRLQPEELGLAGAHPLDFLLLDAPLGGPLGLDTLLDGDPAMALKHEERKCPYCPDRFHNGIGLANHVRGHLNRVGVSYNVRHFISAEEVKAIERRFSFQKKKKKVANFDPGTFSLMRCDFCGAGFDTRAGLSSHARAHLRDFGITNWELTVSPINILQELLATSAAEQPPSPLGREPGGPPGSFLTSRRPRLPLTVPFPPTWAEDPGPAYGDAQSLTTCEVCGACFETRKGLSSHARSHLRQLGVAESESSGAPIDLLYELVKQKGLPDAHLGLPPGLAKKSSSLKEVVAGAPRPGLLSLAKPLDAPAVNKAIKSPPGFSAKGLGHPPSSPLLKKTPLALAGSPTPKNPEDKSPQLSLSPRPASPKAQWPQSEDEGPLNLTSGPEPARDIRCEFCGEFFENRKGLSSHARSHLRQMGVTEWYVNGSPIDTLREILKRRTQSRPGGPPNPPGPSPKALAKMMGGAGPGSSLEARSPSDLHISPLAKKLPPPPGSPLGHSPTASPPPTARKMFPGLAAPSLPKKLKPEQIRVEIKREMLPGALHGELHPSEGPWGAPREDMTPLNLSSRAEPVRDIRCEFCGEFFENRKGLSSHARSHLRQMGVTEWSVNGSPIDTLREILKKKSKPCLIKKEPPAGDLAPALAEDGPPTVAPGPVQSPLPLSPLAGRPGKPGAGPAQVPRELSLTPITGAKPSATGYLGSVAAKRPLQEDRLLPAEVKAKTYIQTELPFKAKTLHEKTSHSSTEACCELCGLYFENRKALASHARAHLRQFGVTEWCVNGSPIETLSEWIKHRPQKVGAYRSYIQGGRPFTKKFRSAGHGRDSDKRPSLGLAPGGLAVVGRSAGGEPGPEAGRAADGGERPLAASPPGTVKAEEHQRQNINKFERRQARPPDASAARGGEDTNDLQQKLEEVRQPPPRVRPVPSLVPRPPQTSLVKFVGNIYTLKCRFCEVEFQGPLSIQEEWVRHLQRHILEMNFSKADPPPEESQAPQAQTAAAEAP
T1 sequence (Q96SW2 whole entry): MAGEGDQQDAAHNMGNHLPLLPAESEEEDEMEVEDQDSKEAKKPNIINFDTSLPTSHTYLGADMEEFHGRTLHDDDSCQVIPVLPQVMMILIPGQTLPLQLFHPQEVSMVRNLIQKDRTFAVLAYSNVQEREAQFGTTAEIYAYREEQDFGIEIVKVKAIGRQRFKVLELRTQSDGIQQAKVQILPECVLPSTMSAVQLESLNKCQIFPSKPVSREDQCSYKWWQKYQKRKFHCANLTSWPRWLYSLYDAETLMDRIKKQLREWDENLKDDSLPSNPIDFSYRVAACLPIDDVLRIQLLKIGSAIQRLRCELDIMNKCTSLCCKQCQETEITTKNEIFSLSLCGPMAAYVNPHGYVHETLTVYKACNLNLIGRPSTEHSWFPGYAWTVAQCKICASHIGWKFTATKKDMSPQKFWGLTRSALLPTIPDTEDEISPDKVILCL
T1 sequence (Q16531 whole entry partner): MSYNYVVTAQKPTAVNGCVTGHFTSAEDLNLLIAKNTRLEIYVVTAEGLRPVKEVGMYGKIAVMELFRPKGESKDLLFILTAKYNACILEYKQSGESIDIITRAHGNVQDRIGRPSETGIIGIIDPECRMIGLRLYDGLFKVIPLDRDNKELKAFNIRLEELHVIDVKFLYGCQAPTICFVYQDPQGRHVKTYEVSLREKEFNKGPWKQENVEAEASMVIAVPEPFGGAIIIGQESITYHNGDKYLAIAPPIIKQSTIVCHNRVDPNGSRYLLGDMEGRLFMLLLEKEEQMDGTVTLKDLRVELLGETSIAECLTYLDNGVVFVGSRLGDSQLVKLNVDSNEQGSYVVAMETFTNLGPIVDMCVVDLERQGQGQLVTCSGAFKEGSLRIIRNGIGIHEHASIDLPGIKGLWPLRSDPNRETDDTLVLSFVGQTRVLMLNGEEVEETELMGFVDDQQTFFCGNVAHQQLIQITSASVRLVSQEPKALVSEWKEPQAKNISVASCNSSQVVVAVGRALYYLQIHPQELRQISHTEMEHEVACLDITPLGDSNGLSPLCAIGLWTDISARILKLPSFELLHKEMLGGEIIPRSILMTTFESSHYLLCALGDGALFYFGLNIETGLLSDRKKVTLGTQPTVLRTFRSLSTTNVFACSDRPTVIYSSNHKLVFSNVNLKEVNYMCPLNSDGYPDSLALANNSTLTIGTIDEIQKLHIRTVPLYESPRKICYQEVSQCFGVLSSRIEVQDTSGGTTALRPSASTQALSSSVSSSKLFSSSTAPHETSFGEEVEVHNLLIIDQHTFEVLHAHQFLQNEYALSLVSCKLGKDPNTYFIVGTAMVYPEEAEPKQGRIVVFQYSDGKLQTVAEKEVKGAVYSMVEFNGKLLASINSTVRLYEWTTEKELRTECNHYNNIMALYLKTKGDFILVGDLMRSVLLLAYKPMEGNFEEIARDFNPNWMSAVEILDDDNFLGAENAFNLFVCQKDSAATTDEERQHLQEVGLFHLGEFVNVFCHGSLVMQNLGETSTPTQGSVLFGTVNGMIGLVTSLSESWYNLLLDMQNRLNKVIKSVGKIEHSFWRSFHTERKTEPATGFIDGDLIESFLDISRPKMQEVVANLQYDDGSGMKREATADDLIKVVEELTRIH

| remaining activity at 25 µM [1] | Dmax at 25 µM | DC50 | Compound | Dmax | remaining activity at 25 µM |
| --- | --- | --- | --- | --- | --- |
| 47.3% | 52.7% | 10 nM | CC#CCN1CCC[C@@H](Oc2ccc3c(c2)CN(C2CCC(=O)NC2=O)C3=O)C1 (stereo partly drawn) [Example 24, 3-(5-(((R)-1-(but-2-yn-1-yl)piperidin-3-yl)oxy)-1-oxoisoindolin-2-yl)piperidine-2,6-dione] |  |  |
| 50.2% | 49.8% | 7.5 nM | O=C1CCC(N2Cc3cc(O[C@@H]4CCCN(CC#CC5CC5)C4)ccc3C2=O)C(=O)N1 (stereo partly drawn) [Example 25, 3-(5-(((R)-1-(3-cyclopropylprop-2-yn-1-yl)piperidin-3-yl)oxy)-1-oxoisoindolin-2-yl)piperidine-2,6-dione] |  |  |
| 58.9% | 41.1% | 21 nM | CCO[C@H]1C[C@@H](N2CCC[C@@H](Oc3ccc4c(c3)CN(C3CCC(=O)NC3=O)C4=O)C2)C1 (stereo partly drawn) [Example 26, 3-(5-(((R)-1-((1s,3S)-3-ethoxycyclobutyl)piperidin-3-yl)oxy)-1-oxoisoindolin-2-yl)piperidine-2,6-dione] |  |  |
| 60.3% | 39.7% | 130 nM | CO[C@H]1C[C@H](CN2CCC[C@@H](Oc3ccc4c(c3)CN(C3CCC(=O)NC3=O)C4=O)C2)C1 (stereo partly drawn) [Example 27, 3-(5-(((R)-1-(((1r,3R)-3-methoxycyclobutyl)methyl)piperidin-3-yl)oxy)-1-oxoisoindolin-2-yl)piperidine-2,6-dione] |  |  |
| 67.1% | 32.9% | 84 nM | O=C1CCC(N2Cc3cc(O[C@@H]4CCCN(C5CC6(CCOCC6)C5)C4)ccc3C2=O)C(=O)N1 (stereo partly drawn) [Example 28, 3-(5-(((R)-1-(7-oxaspiro[3.5]nonan-2-yl)piperidin-3-yl)oxy)-1-oxoisoindolin-2-yl)piperidine-2,6-dione] |  |  |
| 70.8% | 29.2% | 79 nM | CO[C@H]1CC[C@H](CN2CCC[C@@H](Oc3ccc4c(c3)CN(C3CCC(=O)NC3=O)C4=O)C2)CC1 (stereo partly drawn) [Example 30, 3-(5-(((R)-1-(((1r,4R)-4-methoxycyclohexyl)methyl)piperidin-3-yl)oxy)-1-oxoisoindolin-2-yl)piperidine-2,6-dione] |  |  |
| 31.4% | 68.6% | 8.9 nM | C=CCCN1CCC[C@@H](Oc2ccc3c(c2)CN(C2CCC(=O)NC2=O)C3=O)C1 (stereo partly drawn) [Example 31, 3-(5-(((R)-1-(but-3-en-1-yl)piperidin-3-yl)oxy)-1-oxoisoindolin-2-yl)piperidine-2,6-dione] |  |  |
| 19.2% | 80.8% | 1.7 nM | CC[C@@H](C)N1CCC[C@@H](Oc2ccc3c(c2)CN(C2CCC(=O)NC2=O)C3=O)C1 (stereo partly drawn) [Example 32, 3-(5-(((R)-1-((R)-sec-butyl)piperidin-3-yl)oxy)-1-oxoisoindolin-2-yl)piperidine-2,6-dione] |  |  |
| 18.6% | 81.4% | 1.5 nM | CC[C@H](C)N1CCC[C@@H](Oc2ccc3c(c2)CN(C2CCC(=O)NC2=O)C3=O)C1 (stereo partly drawn) [Example 33, 3-(5-(((R)-1-((S)-sec-butyl)piperidin-3-yl)oxy)-1-oxoisoindolin-2-yl)piperidine-2,6-dione] |  |  |
| 35.6% | 64.3% | 25 nM | CC(C)CN1CCCC[C@@H](Oc2ccc3c(c2)CN(C2CCC(=O)NC2=O)C3=O)C1 (stereo partly drawn) [Example 38, 3-(5-(((R)-1-isobutylazepan-3-yl)oxy)-1-oxoisoindolin-2-yl)piperidine-2,6-dione] |  |  |
| 73.5% | 26.5% | 770 nM | CCN1CC[C@H](Oc2ccc3c(c2)CN(C2CCC(=O)NC2=O)C3=O)C1 (stereo partly drawn) [Example 40, 3-(5-(((S)-1-ethylpyrrolidin-3-yl)oxy)-1-oxoisoindolin-2-yl)piperidine-2,6-dione] |  |  |
| 22.9% | 77.1% | 3.6 nM | O=C1CCC(N2Cc3cc(O[C@@H]4CCCN(C5CCCC5)C4)ccc3C2=O)C(=O)N1 (stereo partly drawn) [Example 42, 3-(5-(((R)-1-cyclopentylpiperidin-3-yl)oxy)-1-oxoisoindolin-2-yl)piperidine-2,6-dione] |  |  |
| 28.1% | 71.9% | 3.7 nM | O=C1CCC(N2Cc3cc(O[C@@H]4CCCN(C5CCCCC5)C4)ccc3C2=O)C(=O)N1 (stereo partly drawn) [Example 43, 3-(5-(((R)-1-cyclohexylpiperidin-3-yl)oxy)-1-oxoisoindolin-2-yl)piperidine-2,6-dione] |  |  |
| 16.9% | 83.1% | 11.2 nM | CC(C)N1C[C@H](O)C[C@@H](Oc2ccc3c(c2)CN(C2CCC(=O)NC2=O)C3=O)C1 (stereo partly drawn) [Example 67, 3-(5-(((3R,5R)-5-hydroxy-1-isopropylpiperidin-3-yl)oxy)-1-oxoisoindolin-2-yl)piperidine-2,6-dione] |  |  |
| 105% |  | > 25000 nM | CCO[C@@H]1C[C@@H](Oc2ccc3c(c2)CN(C2CCC(=O)NC2=O)C3=O)CN(C(=O)NC)C1 (stereo partly drawn) [Example 68, (3R,5R)-3-((2-(2,6-dioxopiperidin-3-yl)-1-oxoisoindolin-5-yl)oxy)-5-ethoxy-N-methylpiperidine-1-carboxamide] |  |  |
| 106% |  | > 25000 nM | CCOC(=O)N1C[C@H](OCC)C[C@@H](Oc2ccc3c(c2)CN(C2CCC(=O)NC2=O)C3=O)C1 (stereo partly drawn) [Example 69, ethyl (3R,5R)-3-((2-(2,6-dioxopiperidin-3-yl)-1-oxoisoindolin-5-yl)oxy)-5-ethoxypiperidine-1-carboxylate] |  |  |

| Compound | remaining activity at 25 µM [1] | Dmax at 25 µM | DC50 | Dmax | remaining activity at 25 µM |
| --- | --- | --- | --- | --- | --- |
| CCN1CCCC[C@@H](Oc2ccc3c(c2)CN(C2CCC(=O)NC2=O)C3=O)C1 (stereo partly drawn) [Example 36, 3-(5-(((R)-1-ethylazepan-3-yl)oxy)-1-oxoisoindolin-2-yl)piperidine-2,6-dione] |  |  | 57 nM | 67.5% | 32.5% |
| CCN1CCCC[C@H](Oc2ccc3c(c2)CN(C2CCC(=O)NC2=O)C3=O)C1 (stereo partly drawn) [Example 37, 3-(5-(((S)-1-ethylazepan-3-yl)oxy)-1-oxoisoindolin-2-yl)piperidine-2,6-dione] |  |  | > 25000 nM |  | 103% |
| CCN1CC[C@@H](Oc2ccc3c(c2)CN(C2CCC(=O)NC2=O)C3=O)C1 (stereo partly drawn) [Example 39, 3-(5-(((R)-1-ethylpyrrolidin-3-yl)oxy)-1-oxoisoindolin-2-yl)piperidine-2,6-dione] |  |  | 210 nM | 52.1% | 47.9% |
| CCN1C[C@@H](F)C[C@@H](Oc2ccc3c(c2)CN(C2CCC(=O)NC2=O)C3=O)C1 (stereo partly drawn) [Example 59, 3-(5-(((3R,5S)-1-ethyl-5-fluoropiperidin-3-yl)oxy)-1-oxoisoindolin-2-yl)piperidine-2,6-dione] |  |  | 2.6 nM | 64.4% | 35.6% |
| CCN1C[C@H](F)C[C@@H](Oc2ccc3c(c2)CN(C2CCC(=O)NC2=O)C3=O)C1 (stereo partly drawn) [Example 60, 3-(5-(((3R,5R)-1-ethyl-5-fluoropiperidin-3-yl)oxy)-1-oxoisoindolin-2-yl)piperidine-2,6-dione] |  |  | 78 nM | 37% | 63% |
| CCO[C@@H]1C[C@@H](Oc2ccc3c(c2)CN(C2CCC(=O)NC2=O)C3=O)CN(CC)C1 (stereo partly drawn) [Example 63, 3-(5-(((3R,5R)-5-ethoxy-1-ethylpiperidin-3-yl)oxy)-1-oxoisoindolin-2-yl)piperidine-2,6-dione] |  |  | 0.12 nM | 79.5% | 20.5% |
| CCN1C[C@H](OC)C[C@@H](Oc2ccc3c(c2)CN(C2CCC(=O)NC2=O)C3=O)C1 (stereo partly drawn) [Example 64, 3-(5-(((3R,5R)-1-ethyl-5-methoxypiperidin-3-yl)oxy)-1-oxoisoindolin-2-yl)piperidine-2,6-dione] |  |  | 6.3 nM | 79.5% | 20.6% |
| CCN1C[C@H](O)C[C@@H](Oc2ccc3c(c2)CN(C2CCC(=O)NC2=O)C3=O)C1 (stereo partly drawn) [Example 66, 3-(5-(((3R,5R)-1-ethyl-5-hydroxypiperidin-3-yl)oxy)-1-oxoisoindolin-2-yl)piperidine-2,6-dione] | 19.9% | 80.1% | 33.3 nM |  |  |

From patent publication US12103919B2, “3-(5-oxy)-1-oxoisoindolin-2-yl)piperidine-2,6-dione derivatives and uses thereof” (NOVARTIS AG, priority 2021, dated 2024)
